Test results taken from US20090098097A1, “COMPOSITION FOR NORMALIZING BLOOD PRESSURE” (KANEKA CORPORATION, priority 2006, published 2009).

Tests used:
healthy male volunteers = test: Evaluation of blood pressure normalization by oxidized coenzyme Q10 in healthy subjects; type: in vivo, human; conditions: for systolic blood pressure / diastolic blood pressure relative to before ingestion (100): 4 weeks after ingestion; for systolic blood pressure: before breakfast
Protocol: Healthy male volunteers (22 subjects) ingested soft capsule preparation containing oxidized coenzyme Q10 (150 mg) by 6 capsules (total 900 mg) per day, and the blood pressure before breakfast was measured before and after ingestion for 4 weeks. After the measurement, the subjects were divided into three groups of hypotension group (n=6, not more than 110 mmHg), normal blood pressure group (n=8, 110-130 mmHg) and mild hypertension group (n=8, 130-150 mmHg), according to the systolic blood pressure before ingestion, and analyzed. […] Consequently, a hypotension improving effect of oxidized coenzyme Q10 in healthy human subjects has been clarified.

[1] = system: healthy male and female volunteers; test: Evaluation of blood pressure normalization by reduced coenzyme Q10 in healthy subjects; type: in vivo, human; conditions: for systolic blood pressure / diastolic blood pressure relative to before ingestion (100): 4 weeks after ingestion; for systolic blood pressure: before breakfast; for change in blood pressure after ingestion as compared to before ingestion (in words): 150 mg per day for 4 weeks
Protocol: Healthy male and female volunteers (20 subjects) ingested 5 soft capsules (total 150 mg) per day each containing 30 mg of reduced coenzyme Q10 (containing about 2% of oxidized coenzyme Q10), and the blood pressure before breakfast was measured before and after ingestion for 4 weeks. After the measurement, the subjects were divided into three groups of hypotension group (n=8, not more than 110 mmHg), normal blood pressure group (n=8, 110-130 mmHg) and mild hypertension group (n=4, 130-150 mmHg), according to the systolic blood pressure before ingestion, and analyzed.

Row | SMILES | systolic blood pressure (healthy male volunteers; hypotension group (n=6, not more than 110 mmHg), 900 mg per day soft capsules, before ingestion 105.5 ± 4.4) | diastolic blood pressure relative to before ingestion (100) (healthy male volunteers; hypotension group, 900 mg per day, **p < 0.01 U-test) | systolic blood pressure (healthy male volunteers; mild hypertension group (n=8, 130-150 mmHg), 900 mg per day, before ingestion 135.8 ± 4.6) | diastolic blood pressure relative to before ingestion (100) (healthy male volunteers; mild hypertension group, 900 mg per day) | systolic blood pressure (healthy male volunteers; normal blood pressure group (n=8, 110-130 mmHg), 900 mg per day, before ingestion 126.1 ± 2.7) | change in blood pressure after ingestion as compared to before ingestion (in words) (healthy male volunteers; normal blood pressure group, 900 mg per day for 4 weeks) | diastolic blood pressure relative to before ingestion (100) (healthy male volunteers; normal blood pressure group, 900 mg per day) | systolic blood pressure ([1]; hypotension group (n=8, not more than 110 mmHg), 150 mg per day soft capsules, before ingestion 99.6 ± 4.9) | change in blood pressure after ingestion as compared to before ingestion (in words) ([1]; hypotension group) | diastolic blood pressure relative to before ingestion (100) ([1]; hypotension group, 150 mg per day, **p < 0.01 U-test) | systolic blood pressure ([1]; mild hypertension group (n=4, 130-150 mmHg), 150 mg per day, before ingestion 140.5 ± 9.2) | change in blood pressure after ingestion as compared to before ingestion (in words) ([1]; mild hypertension group) | diastolic blood pressure relative to before ingestion (100) ([1]; mild hypertension group, 150 mg per day, *p < 0.05 U-test) | systolic blood pressure ([1]; normal blood pressure group (n=8, 110-130 mmHg), 150 mg per day, before ingestion 125.3 ± 3.1) | change in blood pressure after ingestion as compared to before ingestion (in words) ([1]; normal blood pressure group) | diastolic blood pressure relative to before ingestion (100) ([1]; normal blood pressure group, 150 mg per day)
1 | COC1=C(OC)C(=O)C(C/C=C(\C)CC/C=C(\C)CC/C=C(\C)CC/C=C(\C)CC/C=C(\C)CC/C=C(\C)CC/C=C(\C)CC/C=C(\C)CC/C=C(\C)CCC=C(C)C)=C(C)C1=O [oxidized coenzyme Q10] | 126.5 ± 2.9 mmHg | (120**) | 134.8 ± 9.4 mmHg | (100) | 127.6 ± 7.7 mmHg | did not show significant variations | (101) | – | – | – | – | – | – | – | – | –
2 | COc1c(O)c(C)c(C/C=C(\C)CC/C=C(\C)CC/C=C(\C)CC/C=C(\C)CC/C=C(\C)CC/C=C(\C)CC/C=C(\C)CC/C=C(\C)CC/C=C(\C)CCC=C(C)C)c(O)c1OC [reduced coenzyme Q10] | – | – | – | – | – | – | – | 117.5 ± 6.2 mmHg | significant increase in the blood pressure | (118**) | 125.1 ± 6.1 mmHg | significant decrease in the blood pressure | (89*) | 125.5 ± 9.1 mmHg | did not show significant variations | (100)
